The values that follow come from patent publication US9932309B2, “2-oxo-3,4-dihydropyridine-5-carboxylates and their use” (UNIVERSITE DE LILLE 2 DROIT ET SANTE, priority 2014, dated 2018).

One test concerns the target T1, mTGR5 (Mus musculus, UniProt Q80SS6).
T1 construct: expressed in transfected cells; host or cells: HEK293 cells, transiently co-transfected with the pCRE TA-Luciferase reporter
T1 sequence (Q80SS6 1-329): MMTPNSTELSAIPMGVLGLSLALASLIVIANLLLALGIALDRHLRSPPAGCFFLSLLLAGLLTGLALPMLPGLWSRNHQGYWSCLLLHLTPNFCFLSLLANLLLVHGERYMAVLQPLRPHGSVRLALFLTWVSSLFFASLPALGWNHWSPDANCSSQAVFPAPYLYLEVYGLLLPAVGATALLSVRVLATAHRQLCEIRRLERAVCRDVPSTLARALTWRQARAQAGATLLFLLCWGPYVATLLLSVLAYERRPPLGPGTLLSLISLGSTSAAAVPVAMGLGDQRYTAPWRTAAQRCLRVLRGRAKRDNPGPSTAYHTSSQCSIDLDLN
Briefly: TGR5/CRE Luciferase Assay (mTGR5). In kind it is cell-based. To be noted: for EC50: HEK 293 cells co-transfected with pCMV AC6-TGR5m and pCRE TA-Luciferase, overnight incubation; for mTGR5 % trans: percentage of the 10 μM LCA value, HEK 293 cells transfected with mTGR5. Put shortly:
(§1)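 Transiently co-transfected HEK293 cells expressing human or mouse TGR5 plus a CRE-luciferase reporter were incubated overnight with rising compound concentrations in duplicate. Luminescence reported cAMP-driven expression; 10 μM lithocholic acid served as positive reference. Curves fitted to a 4-parameter logistic.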

The next test addresses T2, hTGR5 (Homo sapiens, UniProt Q8TDU6).
T2 construct: expressed in transfected cells; host or cells: HEK293 cells, transiently co-transfected with the pCRE TA-Luciferase reporter
T2 sequence (Q8TDU6 1-330): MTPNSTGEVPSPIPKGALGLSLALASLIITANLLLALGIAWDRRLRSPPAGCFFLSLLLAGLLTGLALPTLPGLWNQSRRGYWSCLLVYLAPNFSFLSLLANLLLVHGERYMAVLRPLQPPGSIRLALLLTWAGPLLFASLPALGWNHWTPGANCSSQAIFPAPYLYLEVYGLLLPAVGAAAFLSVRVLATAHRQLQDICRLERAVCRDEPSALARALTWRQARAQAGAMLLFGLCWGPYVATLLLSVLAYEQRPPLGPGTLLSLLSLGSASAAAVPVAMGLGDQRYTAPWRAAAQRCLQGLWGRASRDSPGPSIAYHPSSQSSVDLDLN
Description: TGR5/CRE Luciferase Assay (hTGR5). The class given is cell-based. To be noted: for EC50: HEK 293 cells co-transfected with pCMV tag4b-TGR5h and pCRE TA-Luciferase, overnight incubation; for hTGR5 % trans: percentage of the 10 μM LCA value, HEK 293 cells transfected with hTGR5. Put shortly:
as §1

As to `COc1ccccc1COC(=O)C1=C(C)N(CC2OCCO2)C(=O)CC1c1ccc(Cl)cc1` (stereo not drawn) [Compound 72, (2-methoxyphenyl)methyl 4-(4-chlorophenyl)-1-(1,3-dioxolan-2-ylmethyl)-6-methyl-2-oxo-3,4-dihydropyridine-5-carboxylate], on mTGR5, the EC50 – broadly, the midpoint of the concentration-response curve – amounted to 200 nM and the mTGR5 % trans is on record as 92%. On hTGR5, this compound had an EC50 of 80 nM and a hTGR5 % trans of 99%.
For `CCOC(=O)C1=C(c2ccccc2)N(C)C(=O)CC1c1ccc(Cl)cc1` (stereo not drawn) [Example 20, Ethyl 4-(4-chlorophenyl)-1-methyl-2-oxo-6-phenyl-3,4-dihydropyridine-5-carboxylate] the same measures were 2500 nM, 53%, 3000 nM and 42%.
Regarding `COCCN1C(=O)CC(c2ccc(Cl)cc2)C(C(=O)NCc2ccccc2)=C1C` (stereo not drawn) [Example 75, N-benzyl-4-(4-chlorophenyl)-1-(2-methoxyethyl)-6-methyl-2-oxo-3,4-dihydropyridine-5-carboxamide], at mTGR5, the concentration giving a half-maximal response (EC50) worked out at 18300 nM and the mTGR5 % trans is 25%. At hTGR5, this compound showed an EC50 of 7800 nM and a hTGR5 % trans of 34%.
For `COCCN1C(=O)CC(c2ccc(Cl)cc2)C(C(=O)N2CCCc3ccccc32)=C1C` (stereo not drawn) [Example 77, 4-(4-chlorophenyl)-5-(3,4-dihydro-2H-quinoline-1-carbonyl)-1-(2-methoxyethyl)-6-methyl-3,4-dihydropyridin-2-one] the same measures were 12300 nM, 73%, 2900 nM and 71%.
At mTGR5, `CC1=C(C(=O)OCc2ccc(C)cc2)C(c2ccc(Cl)cc2)CC(=O)N1C` (stereo not drawn) [Example 79, p-tolylmethyl 4-(4-chlorophenyl)-1,6-dimethyl-2-oxo-3,4-dihydropyridine-5-carboxylate] returned an EC50 of 700 nM and a mTGR5 % trans of 73%. Moreover, on hTGR5, the concentration for a half-maximal effect (EC50) came out at 700 nM and the hTGR5 % trans stood at 80%.
At mTGR5, `CC1=C(C(=O)OCc2ccc(C(F)(F)F)cc2)C(c2ccc(Cl)cc2)CC(=O)N1C` (stereo not drawn) [Example 80, [4-(trifluoromethyl)phenyl]methyl 4-(4-chlorophenyl)-1,6-dimethyl-2-oxo-3,4-dihydropyridine-5-carboxylate] registered an EC50 of 1400 nM and a mTGR5 % trans of 67%. On hTGR5, this compound displayed an EC50 of 1500 nM and a hTGR5 % trans of 60%.
For `CC1=C(C(=O)OCc2ccc(F)cc2Cl)C(c2ccc(Cl)cc2)CC(=O)N1C` (stereo not drawn) [Example 81, (2-chloro-4-fluoro-phenyl)methyl 4-(4-chlorophenyl)-1,6-dimethyl-2-oxo-3,4-dihydropyridine-5-carboxylate] the same measures were 1300 nM, 62%, 500 nM and 86%.
For `CC1=C(C(=O)OCc2c(F)cccc2F)C(c2ccc(Cl)cc2)CC(=O)N1C` (stereo not drawn) [Example 82, (2,6-difluorophenyl)methyl 4-(4-chlorophenyl)-1,6-dimethyl-2-oxo-3,4-dihydropyridine-5-carboxylate], on mTGR5, the EC50 amounted to 1500 nM and the mTGR5 % trans is listed as 59%. On hTGR5, this compound registered an EC50 of 700 nM and a hTGR5 % trans of 74%.
For `COc1ccc(COC(=O)C2=C(C)N(C)C(=O)CC2c2ccc(Cl)cc2)cc1OC` (stereo not drawn) [Example 83, (3,4-dimethoxyphenyl)methyl 4-(4-chlorophenyl)-1,6-dimethyl-2-oxo-3,4-dihydropyridine-5-carboxylate] the same measures were 400 nM, 88%, 1200 nM and 69%.
On the same counts, the results for `COCCN1C(=O)CC(c2ccc(Cl)cc2)C(C(=O)OCc2ccccc2F)=C1C` (stereo not drawn) [Example 84, (2-fluorophenyl)methyl 4-(4-chlorophenyl)-1-(2-methoxyethyl)-6-methyl-2-oxo-3,4-dihydropyridine-5-carboxylate] are 500 nM, 71%, 400 nM and 71%.
On mTGR5, `COCCN1C(=O)CC(c2ccc(Cl)cc2)C(C(=O)OCc2ccc(F)cc2)=C1C` (stereo not drawn) [Example 86, (4-fluorophenyl)methyl 4-(4-chlorophenyl)-1-(2-methoxyethyl)-6-methyl-2-oxo-3,4-dihydropyridine-5-carboxylate] gave an EC50 of 400 nM and a mTGR5 % trans of 82%. In addition, on hTGR5, the response was half-maximal at 400 nM (EC50) and the hTGR5 % trans stood at 71%.
In the case of `COCCN1C(=O)CC(c2ccc(Cl)cc2)C(C(=O)OCc2cccc(Cl)c2)=C1C` (stereo not drawn) [Example 88, (3-chlorophenyl)methyl 4-(4-chlorophenyl)-1-(2-methoxyethyl)-6-methyl-2-oxo-3,4-dihydropyridine-5-carboxylate], on mTGR5, the EC50 turned out to be 400 nM and the mTGR5 % trans is 91%. At hTGR5, this compound yielded an EC50 of 200 nM and a hTGR5 % trans of 75%.
For `COCCN1C(=O)CC(c2ccc(Cl)cc2)C(C(=O)OCc2ccc(Cl)cc2)=C1C` (stereo not drawn) [Example 89, (4-chlorophenyl)methyl 4-(4-chlorophenyl)-1-(2-methoxyethyl)-6-methyl-2-oxo-3,4-dihydropyridine-5-carboxylate] the same measures were 300 nM, 84%, 400 nM and 65%.
For `COCCN1C(=O)CC(c2ccc(Cl)cc2)C(C(=O)OCc2ccccc2C(F)(F)F)=C1C` (stereo not drawn) [Example 90, [2-(trifluoromethyl)phenyl]methyl 4-(4-chlorophenyl)-1-(2-methoxyethyl)-6-methyl-2-oxo-3,4-dihydropyridine-5-carboxylate] the same measures were 1300 nM, 34%, 1100 nM and 57%.
Take `COCCN1C(=O)CC(c2ccc(Cl)cc2)C(C(=O)OCc2cccc(C(F)(F)F)c2)=C1C` (stereo not drawn) [Example 91, [3-(trifluoromethyl)phenyl]methyl 4-(4-chlorophenyl)-1-(2-methoxyethyl)-6-methyl-2-oxo-3,4-dihydropyridine-5-carboxylate]: the values for the concentration giving a half-maximal response (EC50) on mTGR5 and at hTGR5 were 700 nM and 500 nM, respectively.
As to `COCCN1C(=O)CC(c2ccc(Cl)cc2)C(C(=O)OCc2ccccc2C#N)=C1C` (stereo not drawn) [Example 93, (2-cyanophenyl)methyl 4-(4-chlorophenyl)-1-(2-methoxyethyl)-6-methyl-2-oxo-3,4-dihydropyridine-5-carboxylate], on mTGR5, the response was half-maximal at 800 nM (EC50) and the mTGR5 % trans is 53%. On hTGR5, this compound had an EC50 of 600 nM and a hTGR5 % trans of 58%.
On mTGR5, `COCCN1C(=O)CC(c2ccc(Cl)cc2)C(C(=O)OCc2cccc(C#N)c2)=C1C` (stereo not drawn) [Example 94, (3-cyanophenyl)methyl 4-(4-chlorophenyl)-1-(2-methoxyethyl)-6-methyl-2-oxo-3,4-dihydropyridine-5-carboxylate] came in with an EC50 of 400 nM and a mTGR5 % trans of 65%. Further, on hTGR5, the EC50 was 600 nM and the hTGR5 % trans is listed as 61%.
For `COCCN1C(=O)CC(c2ccc(Cl)cc2)C(C(=O)OCc2ccc(C#N)cc2)=C1C` (stereo not drawn) [Example 95, (4-cyanophenyl)methyl 4-(4-chlorophenyl)-1-(2-methoxyethyl)-6-methyl-2-oxo-3,4-dihydropyridine-5-carboxylate] the same measures were 300 nM, 76%, 200 nM and 78%.
At mTGR5, `COCCN1C(=O)CC(c2ccc(Cl)cc2)C(C(=O)OCc2cccc(C(=O)OC)c2)=C1C` (stereo not drawn) [Example 96, (3-methoxycarbonylphenyl)methyl 4-(4-chlorophenyl)-1-(2-methoxyethyl)-6-methyl-2-oxo-3,4-dihydropyridine-5-carboxylate] came in with an EC50 of 600 nM and a mTGR5 % trans of 83%. For the same compound, at hTGR5, the EC50 was 1100 nM and the hTGR5 % trans came out at 63%.
For `COCCN1C(=O)CC(c2ccc(Cl)cc2)C(C(=O)OCc2ccc(C(=O)OC)cc2)=C1C` (stereo not drawn) [Example 97, (4-methoxycarbonylphenyl)methyl 4-(4-chlorophenyl)-1-(2-methoxyethyl)-6-methyl-2-oxo-3,4-dihydropyridine-5-carboxylate] the same measures were 400 nM, 76%, 400 nM and 76%.
